Laboratory results published in patent US10597388B2, “Pyridazinone herbicides” (FMC CORPORATION, priority 2014, dated 2020).
Where two headings read alike, the source gives them in different places.

Columns and labels:
Type in all cases: in vivo
[1] = test system: barnyardgrass (Echinochloa crus-galli); assay: Test A greenhouse herbicide test, pre- and postemergence; conditions: Echinochloa crus-galli, 240 h; for pest or weed control at 125 g/ha: 125 g ai/ha; for pest or weed control at 500 g/ha: 500 g ai/ha, 0 to 100 scale
How it was run: (§1)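 Seeds sown in loam–sand blend got a preemergence directed soil spray of compound in non-phytotoxic solvent with surfactant. Postemergence treatment was given at 2–10 cm, one- to two-leaf stage. After ~10 d in greenhouse, injury was rated visually vs untreated controls, 0 (no effect) to 100 (complete control).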

corn (Zea mays) = assay: as above; conditions: Zea mays, post-emergence, 240 h, Postemergence; for Corn plant response rating (crop injury, 0 = no effect, 100 = complete kill) at 125 g/ha: 125 g ai/ha, visual rating after approx. 10 d, 0 to 100 scale (0 no effect, 100 complete control); for plant injury at 500 g/ha: 500 g ai/ha, 0 to 100 scale, 0 is no effect, 100 is complete control, read-out: Corn plant response rating
How it was run: as §1

[2] = test system: foxtail, giant (giant foxtail, Setaria faberii); assay: as above; conditions: Setaria faberi, 240 h; for pest or weed control at 125 g/ha: 125 g ai/ha; for pest or weed control at 500 g/ha: 500 g ai/ha, 0 to 100 scale
How it was run: as §1

kochia (Kochia scoparia) = assay: as above; conditions: Bassia scoparia, 240 h; for pest or weed control at 125 g/ha: 125 g ai/ha; for pest or weed control at 500 g/ha: 500 g ai/ha, 0 to 100 scale
How it was run: as §1

[3] = test system: pigweed (Amaranthus retroflexus); assay: as above; conditions: Amaranthus retroflexus, 240 h; for pest or weed control at 125 g/ha: 125 g ai/ha; for pest or weed control at 500 g/ha: 500 g ai/ha, 0 to 100 scale
How it was run: as §1

[4] = test system: ragweed (common ragweed, Ambrosia elatior); assay: as above; conditions: Ambrosia artemisiifolia, 240 h; for pest or weed control at 125 g/ha: 125 g ai/ha; for pest or weed control at 500 g/ha: 500 g ai/ha, 0 to 100 scale
How it was run: as §1

[5] = test system: ryegrass, Italian (Italian ryegrass, Lolium multiflorum); assay: as above; conditions: Lolium multiflorum, 240 h; for pest or weed control at 125 g/ha: 125 g ai/ha; for pest or weed control at 500 g/ha: 500 g ai/ha, 0 to 100 scale
How it was run: as §1

[6] = test system: wheat (Triticum aestivum); assay: as above; conditions: Triticum aestivum, post-emergence, 240 h, Postemergence; for plant injury at 125 g/ha: 125 g ai/ha, visual rating after approx. 10 d, 0 to 100 scale (0 no effect, 100 complete control), read-out: Plant response rating, Wheat; for plant injury at 500 g/ha: 500 g ai/ha, 0 to 100 scale, 0 is no effect, 100 is complete control, read-out: Wheat plant response rating
How it was run: as §1

[7] = test system: blackgrass (Alopecurus myosuroides); assay: Test A greenhouse herbicide test, postemergence; conditions: Alopecurus myosuroides, post-emergence, 240 h; for pest or weed control at 125 g/ha: 125 g ai/ha, visual rating after approx. 10 d, 0 to 100 scale (0 no effect, 100 complete control), read-out: Plant response rating, Blackgrass; for pest or weed control at 500 g/ha: 500 g ai/ha, 0 to 100 scale, 0 is no effect, 100 is complete control, read-out: Blackgrass plant response rating
How it was run: (§2)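 Greenhouse postemergence test: formulated chemicals sprayed on one- to two-leaf plants (2 to 10 cm), grown in loam soil blended with sand. Injury assessed visually about 10 d later against untreated controls, scored 0 (no effect) to 100 (complete control).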

[8] = test system: galium (catchweed bedstraw, Galium aparine); assay: Test A greenhouse herbicide test, postemergence; conditions: Galium, post-emergence, 240 h; for pest or weed control at 125 g/ha: 125 g ai/ha, visual rating after approx. 10 d, 0 to 100 scale (0 no effect, 100 complete control), read-out: Plant response rating, Galium; for pest or weed control at 500 g/ha: 500 g ai/ha, 0 to 100 scale, 0 is no effect, 100 is complete control, read-out: Galium plant response rating
How it was run: as §2

[9] = post-emergence, Postemergence, visual rating after approx. 10 d, 0 to 100 scale (0 no effect, 100 complete control), read-out: Plant response rating, Barnyardgrass
[10] = post-emergence, Postemergence, 0 is no effect, 100 is complete control, read-out: Barnyardgrass plant response rating
[11] = pre-emergence, Preemergence, 0 to 100 scale where 0 is no effect and 100 is complete control, read-out: Barnyardgrass plant response rating
[12] = pre-emergence, Preemergence, 0 no effect, 100 complete control, read-out: Plant response rating, Barnyardgrass
[13] = post-emergence, Postemergence, visual rating after approx. 10 d, 0 to 100 scale (0 no effect, 100 complete control), read-out: Plant response rating, Foxtail, Giant
[14] = post-emergence, Postemergence, 0 is no effect, 100 is complete control, read-out: Foxtail, Giant plant response rating
[15] = pre-emergence, Preemergence, 0 to 100 scale where 0 is no effect and 100 is complete control, read-out: Foxtail, Giant plant response rating
[16] = pre-emergence, Preemergence, 0 no effect, 100 complete control, read-out: Plant response rating, Foxtail, Giant
[17] = post-emergence, Postemergence, visual rating after approx. 10 d, 0 to 100 scale (0 no effect, 100 complete control), read-out: Plant response rating, Kochia
[18] = post-emergence, Postemergence, 0 is no effect, 100 is complete control, read-out: Kochia plant response rating
[19] = pre-emergence, Preemergence, 0 to 100 scale where 0 is no effect and 100 is complete control, read-out: Kochia plant response rating
[20] = pre-emergence, Preemergence, 0 no effect, 100 complete control, read-out: Plant response rating, Kochia
[21] = post-emergence, Postemergence, visual rating after approx. 10 d, 0 to 100 scale (0 no effect, 100 complete control), read-out: Plant response rating, Pigweed
[22] = post-emergence, Postemergence, 0 is no effect, 100 is complete control, read-out: Pigweed plant response rating
[23] = pre-emergence, Preemergence, 0 to 100 scale where 0 is no effect and 100 is complete control, read-out: Pigweed plant response rating
[24] = pre-emergence, Preemergence, 0 no effect, 100 complete control, read-out: Plant response rating, Pigweed
[25] = post-emergence, Postemergence, visual rating after approx. 10 d, 0 to 100 scale (0 no effect, 100 complete control), read-out: Plant response rating, Ragweed
[26] = post-emergence, Postemergence, 0 is no effect, 100 is complete control, read-out: Ragweed plant response rating
[27] = pre-emergence, Preemergence, 0 to 100 scale where 0 is no effect and 100 is complete control, read-out: Ragweed plant response rating
[28] = pre-emergence, Preemergence, 0 no effect, 100 complete control, read-out: Plant response rating, Ragweed
[29] = post-emergence, Postemergence, visual rating after approx. 10 d, 0 to 100 scale (0 no effect, 100 complete control), read-out: Plant response rating, Ryegrass, Italian
[30] = post-emergence, Postemergence, 0 is no effect, 100 is complete control, read-out: Ryegrass, Italian plant response rating
[31] = pre-emergence, Preemergence, 0 to 100 scale where 0 is no effect and 100 is complete control, read-out: Ryegrass, Italian plant response rating
[32] = pre-emergence, Preemergence, 0 no effect, 100 complete control, read-out: Plant response rating, Ryegrass, Italian

CCc1sc2cc(C)cc(C)c2c1-c1c(O)c(C)nn(C)c1=O [Compound 19, 4-(2-ethyl-4,6-dimethylbenzo[b]thien-3-yl)-5-hydroxy-2,6-dimethyl-3(2H)-pyridazinone]
30%: pest or weed control at 125 g/ha [1, 11] | pest or weed control at 125 g/ha [8]
0%: Corn plant response rating (crop injury, 0 = no effect, 100 = complete kill) at 125 g/ha (corn (Zea mays)) | plant injury at 500 g/ha (corn (Zea mays)) | pest or weed control at 125 g/ha [2, 15] | pest or weed control at 500 g/ha [2, 16] | pest or weed control at 125 g/ha (kochia (Kochia scoparia); [17]) | pest or weed control at 500 g/ha (kochia (Kochia scoparia); [18]) | pest or weed control at 125 g/ha (kochia (Kochia scoparia); [19]) | pest or weed control at 500 g/ha (kochia (Kochia scoparia); [20]) | pest or weed control at 125 g/ha [3, 21] | pest or weed control at 500 g/ha [3, 22] | pest or weed control at 125 g/ha [3, 23] | pest or weed control at 500 g/ha [3, 24] | pest or weed control at 125 g/ha [4, 25] | pest or weed control at 500 g/ha [4, 26] | pest or weed control at 125 g/ha [4, 27] | pest or weed control at 125 g/ha [5, 29] | pest or weed control at 500 g/ha [5, 30] | pest or weed control at 125 g/ha [5, 31] | pest or weed control at 500 g/ha [5, 32] | plant injury at 125 g/ha [6] | plant injury at 500 g/ha [6] | pest or weed control at 125 g/ha [7] | pest or weed control at 500 g/ha [7]
60%: pest or weed control at 500 g/ha [2, 14]
90%: pest or weed control at 500 g/ha [1, 12]
20%: pest or weed control at 125 g/ha [1, 9] | pest or weed control at 125 g/ha [2, 13] | pest or weed control at 500 g/ha [4, 28]
80%: pest or weed control at 500 g/ha [1, 10] | pest or weed control at 500 g/ha [8]

CC(=O)Oc1c(C)nn(C)c(=O)c1-c1c(C)oc2c(C)cccc12 [Compound 15, 5-(acetyloxy)-4-(2,7-dimethyl-3-benzofuranyl)-2,6-dimethyl-3(2H)-pyridazinone]
100%: pest or weed control at 500 g/ha [5, 32]
50%: pest or weed control at 125 g/ha (kochia (Kochia scoparia); [17]) | pest or weed control at 500 g/ha (kochia (Kochia scoparia); [18]) | pest or weed control at 125 g/ha [4, 25] | pest or weed control at 500 g/ha [4, 26] | pest or weed control at 125 g/ha [5, 29] | pest or weed control at 125 g/ha [5, 31] | pest or weed control at 500 g/ha [7]
30%: pest or weed control at 500 g/ha [4, 28]
20%: pest or weed control at 125 g/ha [1, 11] | plant injury at 500 g/ha (corn (Zea mays))
10%: pest or weed control at 125 g/ha [2, 15]
0%: Corn plant response rating (crop injury, 0 = no effect, 100 = complete kill) at 125 g/ha (corn (Zea mays)) | pest or weed control at 125 g/ha (kochia (Kochia scoparia); [19]) | pest or weed control at 500 g/ha (kochia (Kochia scoparia); [20]) | pest or weed control at 125 g/ha [3, 21] | pest or weed control at 500 g/ha [3, 22] | pest or weed control at 125 g/ha [3, 23] | pest or weed control at 500 g/ha [3, 24] | pest or weed control at 125 g/ha [4, 27] | plant injury at 125 g/ha [6] | plant injury at 500 g/ha [6] | pest or weed control at 125 g/ha [7]
90%: pest or weed control at 500 g/ha [1, 10] | pest or weed control at 500 g/ha [1, 12] | pest or weed control at 500 g/ha [2, 14] | pest or weed control at 500 g/ha [5, 30] | pest or weed control at 500 g/ha [8]
70%: pest or weed control at 125 g/ha [1, 9] | pest or weed control at 125 g/ha [2, 13] | pest or weed control at 500 g/ha [2, 16] | pest or weed control at 125 g/ha [8]
